From patent US8399681B2, “Substituted aminothiazolone indazoles as estrogen related receptor-alpha modulators” (Janssen Pharmaceutica NV, priority 2009, dated 2013)
pEC50: −log10 of the molar value.

Molecular target: T1, ERR1 (also known as ERR-α or ERR-1) (Homo sapiens, UniProt P11474)
T1 sequence (P11474 193-421 limits assumed): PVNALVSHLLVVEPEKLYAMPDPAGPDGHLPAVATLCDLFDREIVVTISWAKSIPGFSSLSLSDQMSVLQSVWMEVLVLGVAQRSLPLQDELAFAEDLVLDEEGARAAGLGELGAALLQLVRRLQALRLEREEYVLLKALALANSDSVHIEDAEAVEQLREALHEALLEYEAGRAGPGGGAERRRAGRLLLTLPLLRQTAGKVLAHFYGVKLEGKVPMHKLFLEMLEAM
Assay: TR-FRET assay (disruption of co-activator peptide binding)
Format: biochemical
Conditions: 6His-tagged ERR1 LBD, GST-hSRC2 co-activator polypeptide; average of 3 independent experiments
In short: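 His6-ERR1 LBD (6 nM) with GST-SRC-2 peptide (6 nM), anti-GST Eu cryptate (30 nM) and anti-His XL665 (7.5 nM) in Tris pH 8/KCl/DTT/BSA buffer, equilibrated 4-18 h at 25 °C. Ex 340, em 615/665 nm; hyperbolic dose-response fit, mean of 3 experiments.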

Row | Compound | pEC50
1 | O=C1CN(C2=NC(=O)/C(=C/c3ccc4c(cnn4Cc4ccc(Cl)cc4C(F)(F)F)c3)S2)C1 [Example 102, 5-[1-(4-Chloro-2-trifluoromethyl-benzyl)-1H-indazol-5-ylmethylene]-2-(3-oxo-azetidin-1-yl)-thiazol-4-one] | 7.66
2 | CN1CCN(C2=NC(=O)/C(=C/c3ccc4c(cnn4Cc4ccc(C(N)=O)cc4C(F)(F)F)c3)S2)CC1 [Compound 20, 4-{5-[2-(4-Methyl-piperazin-1-yl)-4-oxo-4H-thiazol-5-ylidenemethyl]-indazol-1-ylmethyl}-3-trifluoromethyl-benzamide] | 6.52
3 | O=C1N=C(N2CCC[C@@H]2C(=O)O)S/C1=C\c1ccc2c(cnn2Cc2ccc(C(F)(F)F)cc2C(F)(F)F)c1 [Example 43, 1-{5-[1-(2,4-Bis-trifluoromethyl-benzyl)-1H-indazol-5-ylmethylene]-4-oxo-4,5-dihydro-thiazol-2-yl}-pyrrolidine-2-(R)-carboxylic acid] | 7.96
4 | O=C(O)COC1CCN(C2=NC(=O)/C(=C/c3ccc4c(cnn4Cc4ccc(Cl)cc4C(F)(F)F)c3)S2)CC1 [Example 131] | 8.11
5 | O=C1N=C(N2CC[C@H](NC(=O)C(F)(F)F)C2)S/C1=C\c1ccc2c(cnn2Cc2ccc(Cl)cc2C(F)(F)F)c1 (stereo in doubt) [Example 116, N-(1-{5-[1-(4-Chloro-2-trifluoromethyl-benzyl)-1H-indazol-5-ylmethylene]-4-oxo-4,5-dihydro-thiazol-2-yl}-pyrrolidin-3-yl)-2,2,2-trifluoro-acetamide] | 7.96
6 | COC1CN(C2=NC(=O)/C(=C/c3ccc4c(cnn4Cc4ccc(Cl)cc4C(F)(F)F)c3)S2)C1 [Example 113, 5-[1-(4-Chloro-2-trifluoromethyl-benzyl)-1H-indazol-5-ylmethylene]-2-(3-methoxy-azetidin-1-yl)-thiazol-4-one] | 7.85
7 | NC(=O)CN1CCN(C2=NC(=O)/C(=C/c3ccc4c(cnn4Cc4ccc(Cl)cc4C(F)(F)F)c3)S2)CC1 [Example 79, 2-(4-{5-[1-(4-Chloro-2-trifluoromethyl-benzyl)-1H-indazol-5-ylmethylene]-4-oxo-4,5-dihydro-thiazol-2-yl}-piperazin-1-yl)-acetamide] | 8.05
8 | NC1CCN(C2=NC(=O)/C(=C/c3ccc4c(cnn4Cc4ccc(Cl)cc4C(F)(F)F)c3)S2)CC1 [Example 57, 2-(4-Amino-piperidin-1-yl)-5-[1-(4-chloro-2-trifluoromethyl-benzyl)-1H-indazol-5-ylmethylene]-thiazol-4-one] | 7.92
9 | CCN1CCN(C2=NC(=O)/C(=C/c3ccc4c(cnn4Cc4ccc(Cl)cc4C(F)(F)F)c3)S2)CC1 [Example 63, 5-[1-(4-Chloro-2-trifluoromethyl-benzyl)-1H-indazol-5-ylmethylene]-2-(4-ethyl-piperazin-1-yl)-thiazol-4-one] | 7.27
10 | NC(=O)C1CCN(C2=NC(=O)/C(=C/c3ccc4c(cnn4Cc4ccc(C(F)(F)F)cc4C(F)(F)F)c3)S2)CC1 [Example 106, 1-{5-[1-(2,4-Bis-trifluoromethyl-benzyl)-1H-indazol-5-ylmethylene]-4-oxo-4,5-dihydro-thiazol-2-yl}-piperidine-4-carboxylic acid amide] | 7.68
11 | CN1CCN(C2=NC(=O)/C(=C/c3ccc4c(cnn4Cc4ccc(C(F)(F)F)cc4C4CC4)c3)S2)CC1 [Example 29, 5-[1-(2-Cyclopropyl-4-trifluoromethyl-benzyl)-1H-indazol-5-ylmethylene]-2-(4-methyl-piperazin-1-yl)-thiazol-4-one] | 7.42

The next lines start with the values.

Row | pEC50 | Compound
12 | 7.89 | O=C1N=C(N2CCN[C@H](CO)C2)S/C1=C\c1ccc2c(cnn2Cc2ccc(C(F)(F)F)cc2C(F)(F)F)c1 [Example 200, 5-({1-[2,4-Bis(trifluoromethyl)benzyl]-1H-indazol-5-yl}methylidene)-2-[3-(S)-(hydroxymethyl)piperazin-1-yl]-1,3-thiazol-4(5H)-one]
13 | 7.77 | O=C1N=C(N2CCNC3(CC3)C2)S/C1=C\c1ccc2c(cnn2Cc2ccc(C(F)(F)F)cc2C(F)(F)F)c1 [Example 179, 5-[1-(2,4-Bis-trifluoromethyl-benzyl)-1H-indazol-5-ylmethylene]-2-(4,7-diaza-spiro[2.5]oct-7-yl)-thiazol-4-one]
14 | 7.62 | O=C1N=C(N2C[C@@H](F)C[C@H]2C(=O)O)S/C1=C\c1ccc2c(cnn2Cc2ccc(Cl)cc2C(F)(F)F)c1 [Example 189, 1-[5-({1-[4-Chloro-2-(trifluoromethyl)benzyl]-1H-indazol-5-yl}methylidene)-4-oxo-4,5-dihydro-1,3-thiazol-2-yl]-4-(S)-fluoro-L-proline]
15 | 7.80 | O=C1N=C(N2CCC3(CC2)NCNC3=O)S/C1=C\c1ccc2c(cnn2Cc2ccc(Cl)cc2C(F)(F)F)c1 [Example 167, 8-{5-[1-(4-Chloro-2-trifluoromethyl-benzyl)-1H-indazol-5-ylmethylene]-4-oxo-4,5-dihydro-thiazol-2-yl}-1,3,8-triaza-spiro[4.5]decan-4-one]
16 | < 5.40 | COC(=O)CNC(=O)[C@@H]1CN(C2=NC(=O)/C(=C/c3ccc4c(cnn4Cc4ccc(C(F)(F)F)cc4C(F)(F)F)c3)S2)CCO1 [Example 282, Methyl N-({(2S)-4-[5-({1-[2,4-bis(trifluoromethyl)benzyl]-1H-indazol-5-yl}methylidene)-4-oxo-4,5-dihydro-1,3-thiazol-2-yl]morpholin-2-yl}carbonyl)glycinate]
17 | 7.92 | O=C1N=C(N2CCC(O)(Cn3ccnc3)CC2)S/C1=C\c1ccc2c(cnn2Cc2ccc(Cl)cc2C(F)(F)F)c1 [Example 164, 5-[1-(4-Chloro-2-trifluoromethyl-benzyl)-1H-indazol-5-ylmethylene]-2-(4-hydroxy-4-imidazol-1-ylmethyl-piperidin-1-yl)-thiazol-4-one]
18 | 7.70 | CC(=O)N[C@@H]1C[C@H](CO)N(C2=NC(=O)/C(=C/c3ccc4c(cnn4Cc4ccc(Cl)cc4C(F)(F)F)c3)S2)C1 [Example 261, N-{(3R,5R)-1-[5-({1-[4-Chloro-2-(trifluoromethyl)benzyl]-1H-indazol-5-yl}methylidene)-4-oxo-4,5-dihydro-1,3-thiazol-2-yl]-5-(hydroxymethyl)pyrrolidin-3-yl}acetamide]
19 | 7.47 | CC(=O)N(C)C1CCN(C2=NC(=O)/C(=C/c3ccc4c(cnn4Cc4ccc(Cl)cc4C(F)(F)F)c3)S2)CC1 [Example 155, N-(1-{5-[1-(4-Chloro-2-trifluoromethyl-benzyl)-1H-indazol-5-ylmethylene]-4-oxo-4,5-dihydro-thiazol-2-yl}-piperidin-4-yl)-N-methyl-acetamide]
20 | 8.30 | O=C1N=C(N2CCO[C@H](CO)C2)S/C1=C\c1ccc2c(c1)c(I)nn2Cc1ccc(C(F)(F)F)cc1C(F)(F)F [Example 175, 5-[1-(2,4-Bis-trifluoromethyl-benzyl)-3-iodo-1H-indazol-5-ylmethylene]-2(S)-(2-hydroxymethyl-morpholin-4-yl)-thiazol-4-one]
21 | 8.31 | Cc1nn(Cc2ccc(Cl)cc2C(F)(F)F)c2ccc(/C=C3\SC(N4CCN[C@@H](CO)C4)=NC3=O)cc12 [Example 183, 5-[1-(4-Chloro-2-trifluoromethyl-benzyl)-3-methyl-1H-indazol-5-ylmethylene]-2-(3-(R)-hydroxymethyl-piperazin-1-yl)-thiazol-4-one]
22 | 8.30 | CS(=O)(=O)N1CCCN(C2=NC(=O)/C(=C/c3ccc4c(cnn4Cc4ccc(Cl)cc4C(F)(F)F)c3)S2)CC1 [Example 134, 5-[1-(4-Chloro-2-trifluoromethyl-benzyl)-1H-indazol-5-ylmethylene]-2-(4-methanesulfonyl-[1,4]diazepan-1-yl)-thiazol-4-one]
23 | 7.96 | C=C(C)c1ccc(Cn2ncc3cc(/C=C4\SC(N5CCO[C@@H](CO)C5)=NC4=O)ccc32)c(C(F)(F)F)c1 [Example 275, 2-[(2R)-2-(Hydroxymethyl)morpholin-4-yl]-5-({1-[4-(1-methylethenyl)-2-(trifluoromethyl)benzyl]-1H-indazol-5-yl}methylidene)-1,3-thiazol-4(5H)-one]
24 | 7.62 | Cc1nn(Cc2ccc(Cl)cc2C(F)(F)F)c2ccc(/C=C3\SC(N4CCC(C(=O)O)CC4)=NC3=O)cc12 [Example 276, 1-[5-({1-[4-Chloro-2-(trifluoromethyl)benzyl]-3-methyl-1H-indazol-5-yl}methylidene)-4-oxo-4,5-dihydro-1,3-thiazol-2-yl]piperidine-4-carboxylic acid]
25 | 7.68 | Cc1nn(Cc2ccc(C(F)(F)F)cc2C(F)(F)F)c2ccc(/C=C3\SC(N4CCO[C@H](CO)C4)=NC3=O)cc12 [Example 180, 5-[1-(2,4-Bis-trifluoromethyl-benzyl)-3-methyl-1H-indazol-5-ylmethylene]-2-(2-(S)-hydroxymethyl-morpholin-4-yl)-thiazol-4-one]
26 | 8.52 | O=C1N=C(N2CCO[C@H](CO)C2)S/C1=C\c1ccc2c(c1)c(Cl)nn2Cc1ccc(C(F)(F)F)cc1C(F)(F)F [Example 184, 5-[1-(2,4-Bis-trifluoromethyl-benzyl)-3-chloro-1H-indazol-5-ylmethylene]-2-(2-(S)-hydroxymethyl-morpholin-4-yl)-thiazol-4-one]
27 | 7.70 | O=C1N=C(N2CCO[C@H](CO)C2)S/C1=C\c1ccc2c(cnn2Cc2ccc(Cl)cc2C(F)(F)F)c1 [Example 212, 5-({1-[4-Chloro-2-(trifluoromethyl)benzyl]-1H-indazol-5-yl}methylidene)-2-[2-(S)-(hydroxymethyl)morpholin-4-yl]-1,3-thiazol-4(5H)-one]
